Converted amounts (≈) assume the structure as drawn. “And” between values parts separate entries of the source, which are not always exact repeats. Identical values can stand only once.
What was measured:
[1] = Cyclic and square wave voltammetry (redox potentials); assay type: physicochemical; settings: for redox potential (redox wave in cyclic voltammogram) / Exp. E1/2, first reduction / Exp. E1/2, second reduction: 4 mM in 0.5 M NaCl; for Exp. E1/2, first reduction: first redox couple; for Exp. E1/2, second reduction: second redox couple; for redox / reversible oxidation potential of catholyte: electrolyte not stated
Method: Electrochemical Cyclic voltammetry (CV) studies. All electrochemical CV experiments were carried out in 0.5 M NaCl electrolyte solutions. Cyclic voltammetry experiments were performed with a Gamry 1000E potentiostat. All potentials were referenced to NHE according to the known MV^2+/1+ redox couple (−0.45 V vs NHE). The working electrode (1 mm PEEK-encased glassy carbon, Cypress Systems EE040) was polished using Al2O3(BAS CF-1050, dried at 150° C. under vacuum) suspended in deionized H2O, then rinsed with deionized H2O and dried with an air flow. The reference electrode was a silver wire coated with a layer of AgCl and suspended in a solution of 0.5 M NaCl electrolyte. A glassy carbon rod (Structure Probe, Inc.) was used as the counter electrode.
Cyclic and square wave voltammetry studies: All experiments were conducted in an […], 0.5 M NaCl aqueous solution, and performed with a Gamry 1000E potentiostat. A 1 mm PEEK encased glassy carbon disk was used as the working electrode. The working electrode was polished with 0.05 micron Al2O3 powder and rinsed with deionized H2O. A glassy carbon rod was used as the counter electrode. A silver wire coated with AgCl and suspended in 3.0 M KCl electrolyte was used as the reference electrode.
The redox potentials were calculated directly versus MV which was derived from the Born-Haber method. This calculation predicts the redox potential of the viologen by comparing it to the experimentally determined potentials for MV. Square wave voltammetry was employed to most accurately measure E1/2 for the two reductions of viologen compounds (FIG. 42). The calculation of the theoretical redox potential vs MV can be simplified as shown below: […]

[2] = Solubility by preparing a super-saturated solution; settings: for solubility: thermodynamic from solid
Method: Chemicals and Materials. All chemicals were purchased from Aldrich or TCI, stored in an Argon glovebox, and used directly. Solubility of substituted ferrocene compounds was measured in water by preparing a super-saturated solution in a volumetric cylinder. Deionized water was purged overnight using N2 before use. All experimental operations were conducted under a N2 atmosphere. Conductivity of the electrolyte solutions was measured using a Mettler Toledo conductivity meter at R.T. NMR studies were conducted using a Bruker 500 MHz NMR spectrometer. UV-Vis was collected using an Ocean Optic spectrometer. Elemental analysis was done at Atlantic Microlab.
Calculation of theoretical energy density: The theoretical energy density of the FcNCl/MV AORFB was calculated using equation 3 below, where n is the number of electrons involved into the cell reaction, C is the concentration of active materials, F is Faraday constant, 26.8 Ah/mol, V is the cell voltage, and 2 represents a factor considering both volumes of anolyte and catholyte. Solubility of FcNCl and MV was measured in water respectively by preparing a super-saturated solution. Similar solubility tests in water were applied for ferrocenecarboxylic acid, 1-1′-ferrocenedicarboxilic acid, ferrocenecarboxylic acid, and 1,1′-ferrocenedimethanol. Energy density (Wh/L)=nCFV/2 (equation 3)

[3] = RDE linear sweep voltammetry with Levich and Tafel analysis; assay type: physicochemical; settings: 1.0 mM in 0.5 M NaCl
Method: Electrochemical RDE studies: All linear sweep voltammetry (LSV) studies were conducted using a Gamry 1000E potentiostat in a three-electrode configuration, a glassy carbon disk working electrode (5 mm Teflon encased glassy carbon disk, Pine Research Instrumentation) along with a glassy carbon counter electrode and a Ag/AgCl reference electrode same as used in CV studies. Before data collection, the disk electrode was prepared using the procedure described in the CV studies. The electrode was then rotated at from 300 to 2400 rpm with an increment of 300 rpm, which was controlled by a Pine MSR rotator system. LSV scans were recorded at a rate of 5 mV/s from 0.3 V to 0.8 V vs NHE. At each rotation rate, the LSV were recorded 3 times to ensure repeatability. The limiting currents (i.e. the mass transport-limited current intensity) were taken at 0.7 V vs NHE for FcNCl and plotted over the square root of the rotation rate (rad/s). The data were fitted to yield a straight Levich plot, with the slope defined by the Levich equation (equation 1 below), where n=1 for one electron process, Faraday's constant F=96485 C/mol, electrode area A=0.1935 cm^2, FcNCl concentration Co=1.0 mM, D is diffusion coefficient, kinematic viscosity n=0.009 cm^2/s for 0.5 M NaCl solution. The calculations yielded the diffusion coefficients of FcNCl as 3.25×10^−6 cm^2/s. A plot of overpotential versus log10(iK) was constructed for the LSV data collected at […] for FcNCl where iK is the kinetic current for the oxidation of FcNCl. […] Levich plot slope=0.620nFACOD^2/3v^−1/6 (equation 1) i0=FACOk0 (equation 2)
Electrochemical RDE studies: Linear sweep voltammetry (LSV) experiments were conducted using a Gamry 1000E potentiostat with a three-electrode system. A 5 mm rotating glassy carbon disk encased in Teflon served as the working electrode. A glassy carbon rod was used as the counter electrode. A Ag/AgCl wire served as the reference electrode. The working electrode was cleaned using the same method as in the CV experiments. During the experiments, the working electrode rotated from 300 rpm to 2400 rpm at increments of 300 rpm. Three scans at each rotation rate were collected to ensure accuracy. (NPr)2V: LSV scans were conducted at a rate of 5 mV/s from 0.1 V to −1.2 V versus NHE. The limiting currents (mass transport-limited current intensity) at each rotation rate were recorded at −0.57 V and −0.95 V versus NHE. […] The slopes of these fitted lines are defined by the Levich equation, Levich Plot Slope=0.620nFAC0D^2/3v^−1/6 (equation 1)
[…] Plots of overpotential versus log10(ik) were constructed from the 2400 rpm LSV, where ik is the kinetic current of each reduction of (NPr)2V. The x-intercept of the fitted Tafel plot represents the log of the exchange current i0 that is defined by: i0=FAC0k^0 (equation 2)
where F, A, and C0 are defined above, and k^0 represents the electron transfer rate constant.
(NPr)(SPr)V, (Me)(NPr)V, (SPr)2V, and [FcN^Et]Br: LSV scans were collected and analyzed using the same techniques described for (NPr)2V.

[4] = known value, potential reference; cited from earlier work
[5] = Conductivity of the electrolyte solutions; assay type: physicochemical; parameters: electrolyte conductivity: unit not given here
Method: Chemicals and Materials. […] Deionized water was purged overnight using N2 before use. All experimental operations were conducted under a N2 atmosphere. […] UV-Vis was collected using an Ocean Optic spectrometer. Elemental analysis was done at Atlantic Microlab.

Compound | redox potential (redox wave in cyclic voltammogram) [1] | solubility ([2]; water) [mM] | solubility in water, [C] [2] [mM] | Exp. E1/2, first reduction [1] [V vs. NHE] | Exp. E1/2, second reduction [1] [V vs. NHE] | diffusion constant, D, first reduction ([3]; Levich) | electron transfer rate constant, k^0, first reduction ([3]; Tafel) | also measured
disodium (ferrocenyl)sulfurtrioxide [FcS] | ~0.77 V vs NHE and 1.0 V vs NHE | – | – | – | – | – | – | –
C[N+](C)(C)CCC[c-]1cccc1.[Cl-].[Fe+2].c1cc[cH-]c1 [prop-FcNCl, (ferrocenylpropyl)trimethylammonium chloride] | – | ~2200 | – | – | – | – | – | –
C[N+](C)(C)CCC[n+]1ccc(-c2cc[n+](CCCS(=O)(=O)[O-])cc2)cc1.[Br-].[Br-] [(NPr)(SPr)V, 1′-[3-(trimethylammonium)propyl]-4′-pyridinium-1-[3-sulfonatopropyl]-4-pyridinium dibromide] | – | – | 1600 | −0.37 | −0.74 | 4.96 × 10^−6 cm^2/s | 3.5e-05 cm/s | solubility in H2O [2]: 1600 mM; diffusion constant, D, second reduction ([3]; Levich): 5.04 × 10^−6 cm^2/s; electron transfer rate constant, k^0, second reduction ([3]; Tafel): 2.09e-05 cm/s
CC1(C)CC([N+](C)(C)CCC[N+](C)(C)C)CC(C)(C)N1O [4-N^NPr-TEMPO, N^1, N^1, N^1, N^3, N^3,2,2,6,6-nonamethyl-N^3-(piperidinyloxy)propane-1,3-bis(ammonium) dichloride] | – | 2300 | – | – | – | – | – | redox / reversible oxidation potential of catholyte [1]: 1.06 V vs NHE
[I-].[K+] [KI, reference compound] | – | – | – | – | – | – | – | redox / reversible oxidation potential of catholyte [1]: 0.65 V vs NHE
C[n+]1ccc(-c2cc[n+](C)cc2)cc1 [MV, methyl viologen, reference compound] | – | – | 2500 | −0.45 | −0.76 | 2.57 × 10^−5 cm^2/s | 0.00028 cm/s | solubility in 2.0 M NaCl solution ([2]; 2.0 M NaCl solution): above 2.0 M; MV^2+/1+ redox couple used as reference [4]: −0.45 V vs NHE
CC(C[N+](C)(C)C[c-]1cccc1)[N+](C)(C)C.[Br-].[Br-].[Fe+2].c1cc[cH-]c1 (centres unmarked) [FcN2, N^1-ferrocenylmethyl-N^1, N^1, N^2, N^2, N^2-pentamethylpropane-1,2-diaminium dibromide] | 0.62 V vs NHE | – | – | – | – | – | – | –
C[N+](C)(C)CCC[n+]1ccc(-c2cc[n+](CCC[N+](C)(C)C)cc2)cc1.[Br-].[Br-].[Br-].[Br-] [(NPr)2V, 1,1′-bis[3-(trimethylamonium)propyl]-4,4′-bipyridinium, tetrabromide] | – | – | 1600 | −0.35 | −0.72 | 3.88×10^−6 cm^2/s | 4.32e-06 cm/s and 4.32e-05 cm/s | solubility in H2O [2]: 1600 mM; effective redox potential (average of the two reductions) ([1]; average of −0.35 and −0.72 V): −0.54 V; diffusion constant, D, second reduction ([3]; Levich): 3.84×10^−6 cm^2/s; electron transfer rate constant, k^0, second reduction ([3]; Tafel): 2.46e-06 cm/s and 2.46e-05 cm/s
C[N+](C)(C)C[c-]1cccc1.[Cl-].[Fe+2].c1cc[cH-]c1 [FcNCl, (ferrocenylmethyl)trimethylammonium chloride] | 0.60 V vs NHE | ~4000 | – | – | – | – | – | electrolyte conductivity ([5]; 0.5 M in 2.0 M NaCl): 135; diffusion coefficient (oxidation) ([3]; Levich): 3.25×10^−6 cm^2/s and 3.74×10^−6 cm^2/s; electron transfer rate constant k0 (oxidation) ([3]; Tafel): 2.29e-05 cm/s and 3.66e-05 cm/s; exchange current i0 ([3]; Tafel X-intercept): 0.7 μA
[Br-].[Br-].[Zn+2] [ZnBr2, reference compound] | −1.2 V vs NHE | – | – | – | – | – | – | –
CC1(C)CC([N+](C)(C)C)CC(C)(C)N1[O].[Cl-] [4-N^Me-TEMPO, N, N, N, 2,2,6,6-Heptamethylpiperidinyloxy-4-ammonium chloride] | – | – | – | – | – | – | – | solubility in H2O [2]: 2500 mM; redox / reversible oxidation potential of catholyte [1]: 1.06 V vs NHE
CC[N+](C)(C)C[c-]1cccc1.[Br-].[Fe+2].c1cc[cH-]c1 [[FcN^Et]Br, (ferrocenylmethyl)ethyldimethylammonium bromide] | 0.60 V vs NHE | 3750 | – | – | – | – | – | –
O=S(=O)([O-])CCC[n+]1ccc(-c2cc[n+](CCCS(=O)(=O)[O-])cc2)cc1 [(SPr)2V, 1,1′-bis[3-sulfonatopropyl]-4,4′-bipyridinium] | – | 2000 (≈ 801 mg/mL) | 2000 (≈ 801 mg/mL) | −0.43 | −0.79 | 3.26×10^−6 cm^2/s | 1.49e-05 cm/s | solubility ([2]; saline or isotonic): 1700 mM (≈ 681 mg/mL); conductivity ([5]; 0.6 M in 1.5 M KCl): 103.2 mS/cm; diffusion constant, D, second reduction ([3]; Levich): 2.81 × 10^−6 cm^2/s; electron transfer rate constant, k^0, second reduction ([3]; Tafel): 3.96e-05 cm/s
C[n+]1ccc(-c2cc[n+](CCC[N+](C)(C)C)cc2)cc1.[Cl-].[Cl-].[Cl-] [(Me)(NPr)V, 1′-methyl-4′-pyridinium-1-[3-(trimethylaminium)propyl]-4-pyridinium trichloride] | – | – | 1800 | −0.39 | −0.78 | 5.40 × 10^−6 cm^2/s | 2.39e-05 cm/s | solubility in H2O [2]: 1800 mM; diffusion constant, D, second reduction ([3]; Levich): 5.29 × 10^−6 cm^2/s; electron transfer rate constant, k^0, second reduction ([3]; Tafel): 1.84e-05 cm/s

Reference: patent publication US10934258B2, “Materials for use in an aqueous organic redox flow battery” (Utah State University, priority 2016, dated 2021)
